# According to ChEMBL document CHEMBL3997763 (Medchemcomm, 2016):
# Activity calls are given as the source filed them. The rule behind the calls is not given here.
# Tests used:
# [1] = target: T1, 3-hydroxy-3-methylglutaryl-coenzyme A reductase (Homo sapiens) (UniProt P04035); test: Inhibition of human HMG-CoA reductase catalytic domain at 1 uM using HMG-CoA as substrate in presence of NADPH by colorimetric method relative to control
# T1 sequence (whole entry): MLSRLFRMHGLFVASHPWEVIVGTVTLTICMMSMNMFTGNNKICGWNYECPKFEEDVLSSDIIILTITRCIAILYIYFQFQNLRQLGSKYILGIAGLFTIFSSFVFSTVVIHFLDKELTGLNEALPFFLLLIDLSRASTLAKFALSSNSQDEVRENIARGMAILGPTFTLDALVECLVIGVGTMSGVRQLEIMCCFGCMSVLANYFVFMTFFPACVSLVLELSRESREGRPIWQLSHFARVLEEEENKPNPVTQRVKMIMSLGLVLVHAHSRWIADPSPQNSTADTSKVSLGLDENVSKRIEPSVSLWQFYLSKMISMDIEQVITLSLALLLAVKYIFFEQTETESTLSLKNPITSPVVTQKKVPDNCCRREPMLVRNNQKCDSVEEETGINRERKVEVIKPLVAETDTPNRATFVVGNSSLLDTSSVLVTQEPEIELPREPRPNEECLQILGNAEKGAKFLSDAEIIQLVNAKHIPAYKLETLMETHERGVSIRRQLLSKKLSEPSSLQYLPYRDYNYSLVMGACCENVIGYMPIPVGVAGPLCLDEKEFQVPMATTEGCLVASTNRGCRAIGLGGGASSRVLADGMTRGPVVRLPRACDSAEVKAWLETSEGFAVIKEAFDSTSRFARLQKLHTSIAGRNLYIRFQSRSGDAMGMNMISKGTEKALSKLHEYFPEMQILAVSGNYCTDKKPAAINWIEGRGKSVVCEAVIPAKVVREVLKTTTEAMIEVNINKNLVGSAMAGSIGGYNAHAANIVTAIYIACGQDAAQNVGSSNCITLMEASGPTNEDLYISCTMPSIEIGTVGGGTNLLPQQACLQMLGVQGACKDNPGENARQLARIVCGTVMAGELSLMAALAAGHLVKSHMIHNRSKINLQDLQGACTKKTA
# [2] = target: T1, 3-hydroxy-3-methylglutaryl-coenzyme A reductase (Homo sapiens); test: Inhibition of human HMG-CoA reductase catalytic domain at 100 uM using HMG-CoA as substrate in presence of NADPH by colorimetric method relative to control
# [3] = target: T1, 3-hydroxy-3-methylglutaryl-coenzyme A reductase (Homo sapiens); test: Inhibition of human HMG-CoA reductase catalytic domain using HMG-CoA as substrate in presence of NADPH by colorimetric method
# [4] = tested on: Rattus norvegicus; test: Antihyperlipidemic activity in triton WR-1339 induced Charles Foster rat hyperlipidemia model assessed as inhibition of total cholesterol level in serum at 150 mg/kg, po administered simultaneously with triton WR-1339 after 18 hrs by enzymatic method relative to control; format: functional
# [5] = tested on: Rattus norvegicus; test: Antihyperlipidemic activity in triton WR-1339 induced Charles Foster rat hyperlipidemia model assessed as increase in HDL-C level in serum at 100 mg/kg, po administered simultaneously with triton WR-1339 after 18 hrs by enzymatic method relative to control; format: functional
# [6] = tested on: Rattus norvegicus; test: Antihyperlipidemic activity in triton WR-1339 induced Charles Foster rat hyperlipidemia model assessed as inhibition of triglyceride level in serum at 150 mg/kg, po administered simultaneously with triton WR-1339 after 18 hrs by enzymatic method relative to control; format: functional
# [7] = tested on: Rattus norvegicus; test: Toxicity in HFD-induced Charles Foster rat chronic hyperlipidemia model assessed as food intake at 100 mg/kg administered via oral gavage for 30 days simultaneously with high fat diet (reference value: 9.81 +/- 0.61 g/day); format: organism-based; details: in vivo, 720 h
# [8] = tested on: Rattus norvegicus; test: Hypolipidemic activity in HFD-induced Charles Foster rat chronic hyperlipidemia model assessed as reduction in serum total cholesterol level at 100 mg/kg administered via oral gavage for 30 days simultaneously with high fat diet by enzymatic method relative to HFD treated vehicle; format: functional; details: 720 h
# [9] = tested on: Rattus norvegicus; test: Hypolipidemic activity in HFD-induced Charles Foster rat chronic hyperlipidemia model assessed as reduction in serum ALT level at 100 mg/kg administered via oral gavage for 30 days simultaneously with high fat diet by colorimetric method relative to HFD treated vehicle; format: functional; details: 720 h
# [10] = tested on: Rattus norvegicus; test: Hypolipidemic activity in HFD-induced Charles Foster rat chronic hyperlipidemia model assessed as reduction in liver total cholesterol level at 100 mg/kg administered via oral gavage for 30 days simultaneously with high fat diet by enzymatic method relative to HFD treated vehicle; format: functional; details: 720 h
# [11] = tested on: Rattus norvegicus; test: Hypolipidemic activity in HFD-induced Charles Foster rat chronic hyperlipidemia model assessed as reduction in liver triglyceride level at 100 mg/kg administered via oral gavage for 30 days simultaneously with high fat diet by enzymatic method relative to HFD treated vehicle; format: functional; details: 720 h
# [12] = tested on: Rattus norvegicus; test: Hypolipidemic activity in HFD-induced Charles Foster rat assessed as reduction in serum LDL-TC at 100 mg/kg administered as single dose via oral gavage for 30 days simultaneously with high fat diet; format: functional, organism-based
# [13] = tested on: Rattus norvegicus; test: Hypolipidemic activity in HFD-induced Charles Foster rat assessed as increase in LCAT activity at 100 mg/kg administered as single dose via oral gavage for 30 days simultaneously with high fat diet by photometric method; format: functional, organism-based
# [14] = Stability of the compound in simulated gastric fluid at 10 uM up to 60 mins by LC-MS/MS analysis
# [15] = Stability of the compound in simulated intestinal fluid at 10 uM up to 120 mins by LC-MS/MS analysis
# [16] = tested on: Liver; test: Stability in Sprague-Dawley rat liver microsomes at 10 uM in absence of NADPH after 5 to 90 mins by LC-MS/MS analysis; format: ADME, microsome
# [17] = Cmax in Sprague-Dawley rat at 100 mg/kg, po administered as single dose by LC-MS/MS analysis; format: ADME, organism-based; set-up: dose 100 mg/kg, route oral; details: in vivo
# [18] = Tmax in Sprague-Dawley rat at 100 mg/kg, po administered as single dose by LC-MS/MS analysis; format: ADME, organism-based; details: in vivo
# [19] = Apparent oral clearance in Sprague-Dawley rat at 100 mg/kg administered as single dose by LC-MS/MS analysis; format: ADME, organism-based; details: in vivo
# [20] = Apparent oral volume of distribution in Sprague-Dawley rat at 100 mg/kg administered as single dose by LC-MS/MS analysis; format: ADME, organism-based; details: in vivo
# [21] = Apparent MRT in Sprague-Dawley rat at 100 mg/kg, po administered as single dose by LC-MS/MS analysis; format: ADME, organism-based; details: in vivo
# [22] = target: Albumin (Bos taurus, UniProt P02769); test: Binding affinity to bovine serum albumin by fluorescence quenching method; format: ADME; details: cattle, isolated protein
# [23] = tested on: Rattus norvegicus; test: Antihyperlipidemic activity in po dosed triton WR-1339 induced Charles Foster rat hyperlipidemia model assessed as inhibition of phospholipid level in serum administered simultaneously with triton WR-1339 after 18 hrs by enzymatic method relative to control; format: functional, organism-based
# [24] = tested on: Rattus norvegicus; test: Hypolipidemic activity in HFD-induced Charles Foster rat assessed as increase in lipolytic activity of LPL in liver at 100 mg/kg administered as single dose via oral gavage for 30 days simultaneously with high fat diet; format: functional, organism-based
# [25] = tested on: Rattus norvegicus; test: Increase in phospholipid level in serum of triton WR-1339 induced Charles Foster rat hyperlipidemia model at 50 mg/kg, po administered simultaneously with triton WR-1339 after 18 hrs by enzymatic method relative to control; format: functional
# Albumin, sequence (P02769 whole entry): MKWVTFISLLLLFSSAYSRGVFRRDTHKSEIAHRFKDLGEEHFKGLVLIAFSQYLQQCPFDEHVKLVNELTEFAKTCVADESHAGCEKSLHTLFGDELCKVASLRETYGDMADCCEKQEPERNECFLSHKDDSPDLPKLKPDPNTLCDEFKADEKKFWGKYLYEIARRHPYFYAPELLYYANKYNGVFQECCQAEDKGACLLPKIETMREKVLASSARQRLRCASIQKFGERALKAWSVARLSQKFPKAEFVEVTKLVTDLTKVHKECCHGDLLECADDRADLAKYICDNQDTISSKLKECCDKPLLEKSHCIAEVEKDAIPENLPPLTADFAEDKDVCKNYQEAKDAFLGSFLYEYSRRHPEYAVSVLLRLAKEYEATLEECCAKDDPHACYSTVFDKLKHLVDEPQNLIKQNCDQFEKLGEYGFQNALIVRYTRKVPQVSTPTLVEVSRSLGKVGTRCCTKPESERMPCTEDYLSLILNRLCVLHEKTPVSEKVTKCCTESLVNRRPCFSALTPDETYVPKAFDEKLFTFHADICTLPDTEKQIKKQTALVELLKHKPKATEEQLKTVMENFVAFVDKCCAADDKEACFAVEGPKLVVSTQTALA
smiles,measurement,setting,value
COc1ccc(-c2cc3cc(C(c4c[nH]c5ccccc45)c4c[nH]c5ccccc45)cc(C(C)(C)C)c3oc2=O)cc1OC,inhibition,[1],19%
same,inhibition,[2],81%
same,inhibition,[3],Dose-dependent effect
same,inhibition in vivo at 150 mg/kg,[4],33%
same,Activity,[5],23%
same,inhibition in vivo at 150 mg/kg,[6],33%
same,Activity,[7],9.63 g/day
same,inhibition in vivo at 100 mg/kg,[8],24%
same,inhibition in vivo at 100 mg/kg,[9],26%
same,inhibition in vivo at 100 mg/kg,[10],27%
same,inhibition in vivo at 100 mg/kg,[11],29%
same,Activity,[12],Active
same,Activity,[13],Active
same,Stability,[14],Stable
same,Stability,[15],Stable
same,Stability,[16],Stable
same,Cmax,[17],79 ng/mL
same,Tmax,[18],4 h
same,CL/F,[19],241 L/h/kg
same,Vd/F,[20],684 L/kg
same,MRT,[21],4.46 h
same,Activity,[22],Active
same,inhibition,[23],Dose-dependent effect
same,Activity,[24],Active
same,Activity,[25],22%
